Reference: ChEMBL document CHEMBL1201862, “PubChem BioAssay data set” (2004)
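Five concentrations, 48 hours, 96-well plates. Abbreviation: GI50, concentration required for 50% inhibition of growth.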 Calls of active or inactive are those of the source. Cut-off read from the data, not from the text of the source: active = GI50 up to about 1.1 µM and inactive = higher.

Experiments:
Assay in all cases: DTP human tumour cell line panel, 48 h
786-0 = test system: 786-0
CCRF-CEM = test system: CCRF-CEM
HOP-92 = test system: HOP-92
M14 = test system: M14
Malme-3M = test system: Malme-3M
RXF 393 = test system: RXF 393
SK-MEL-28 = test system: SK-MEL-28
SK-MEL-2 = test system: SK-MEL-2
SW-620 = test system: SW-620
U-251 = test system: U-251
A498 = test system: A498
SK-OV-3 = test system: SK-OV-3

Measured: GI50

CCOC1=C2N=C(Cc3ccccc3F)N=C2C(=O)c2ccccc21
inactive: 786-0 > 100 µM | CCRF-CEM > 100 µM | HOP-92 > 100 µM | M14 > 100 µM | Malme-3M > 100 µM | RXF 393 > 100 µM | SK-MEL-28 > 100 µM | SK-MEL-2 > 100 µM | SW-620 > 100 µM | U-251 > 100 µM

N#C/C(=C\c1cc(O)ccc1O)C(N)=O
inactive: 786-0 29.4 µM | A498 41 µM | CCRF-CEM 21.5 µM | HOP-92 34.4 µM | M14 38.6 µM | Malme-3M 74 µM | RXF 393 19 µM | SK-MEL-28 37.1 µM | SK-MEL-2 42.5 µM | SK-OV-3 67.6 µM | SW-620 49.9 µM | U-251 98.4 µM

CCc1ccc(Cc2ccc(CC)c(NC(=O)C(=O)Cc3nc4ccccc4nc3C)c2CC)c(CC)c1NC(=O)C(=O)Cc1nc2ccccc2nc1C
inactive: 786-0 > 100 µM | A498 > 100 µM | CCRF-CEM 42.7 µM | HOP-92 4.02 µM | M14 > 100 µM | Malme-3M 81.3 µM | RXF 393 41.4 µM | SK-MEL-28 66.7 µM | SK-MEL-2 > 100 µM | SK-OV-3 > 100 µM | SW-620 > 100 µM | U-251 49.7 µM

COC12OCCN(C)C1=CC(=O)C1=NNC(C)C12 (stereo not given)
inactive: 786-0 > 100 µM | A498 > 100 µM | CCRF-CEM > 100 µM | HOP-92 > 100 µM | M14 > 100 µM | RXF 393 > 100 µM | SK-MEL-28 > 100 µM | SK-OV-3 > 100 µM | SW-620 > 100 µM | U-251 > 100 µM

CCCCCCCCCCn1cccc1/C=C/c1ccc(/C=C/c2cccn2CCCCCCCCCC)cc1
inactive: 786-0 > 100 µM | A498 > 100 µM | CCRF-CEM > 100 µM | HOP-92 > 100 µM | M14 > 100 µM | Malme-3M > 100 µM | RXF 393 > 100 µM | SK-MEL-28 > 100 µM | SK-OV-3 > 100 µM | SW-620 > 100 µM | U-251 > 100 µM

O=C(O)CCNCCCCNCCC(=O)O
inactive: 786-0 > 100 µM | A498 > 100 µM | CCRF-CEM > 100 µM | HOP-92 > 100 µM | M14 > 100 µM | Malme-3M > 100 µM | RXF 393 > 100 µM | SK-MEL-28 > 100 µM | SK-MEL-2 > 100 µM | SK-OV-3 > 100 µM | SW-620 > 100 µM | U-251 > 100 µM

CCOP(=O)(OCC)C(C(=O)OC)C(=O)C(=O)Nc1ccc(Cl)cc1Cl (stereo not given)
inactive: 786-0 > 100 µM | A498 > 100 µM | CCRF-CEM > 100 µM | HOP-92 > 100 µM | M14 > 100 µM | Malme-3M > 100 µM | RXF 393 65.3 µM | SK-MEL-28 > 100 µM | SK-MEL-2 > 100 µM | SK-OV-3 > 100 µM | SW-620 > 100 µM | U-251 > 100 µM

COC(=O)C1=C(C(=O)OC)C2(CCCCCC2=O)OC1=O (stereo not given)
inactive: 786-0 > 100 µM | A498 > 100 µM | CCRF-CEM > 100 µM | HOP-92 > 100 µM | M14 > 100 µM | Malme-3M > 100 µM | RXF 393 > 100 µM | SK-MEL-28 > 100 µM | SK-MEL-2 > 100 µM | SK-OV-3 > 100 µM | SW-620 > 100 µM | U-251 > 100 µM

O=C1CCC(c2nc3ccccc3o2)C(=O)N1 (stereo not given)
inactive: 786-0 > 100 µM | A498 > 100 µM | CCRF-CEM > 100 µM | HOP-92 > 100 µM | M14 > 100 µM | Malme-3M > 100 µM | RXF 393 > 100 µM | SK-MEL-28 > 100 µM | SK-MEL-2 > 100 µM | SK-OV-3 > 100 µM | SW-620 > 100 µM | U-251 > 100 µM

CCOC(=O)C(Cc1ccccc1)NC(=O)c1nc[nH]c1/N=N/N(C)C (stereo not given)
inactive: 786-0 > 100 µM | A498 > 100 µM | CCRF-CEM > 100 µM | M14 > 100 µM | Malme-3M > 100 µM | SK-MEL-28 > 100 µM | SK-MEL-2 > 100 µM | SK-OV-3 > 100 µM | SW-620 > 100 µM | U-251 > 100 µM

N#CC1(N2CCCC2)CCC2(CC1)OCCO2
inactive: 786-0 > 100 µM | A498 > 100 µM | CCRF-CEM > 100 µM | HOP-92 > 100 µM | M14 > 100 µM | Malme-3M > 100 µM | RXF 393 > 100 µM | SK-MEL-28 > 100 µM | SK-MEL-2 > 100 µM | SK-OV-3 > 100 µM | SW-620 > 100 µM | U-251 > 100 µM

Cc1cc(C)nc(NS(=O)(=O)c2ccc(Nc3c4ccccc4nc4c(C(=O)Nc5ccc(S(=O)(=O)Nc6cc(C)on6)cc5)ccc(Cl)c34)cc2)n1
inactive: 786-0 17.9 µM | A498 17.2 µM | CCRF-CEM 21.8 µM | M14 20.1 µM | Malme-3M 28.1 µM | RXF 393 14.8 µM | SK-MEL-28 27.7 µM | SK-OV-3 69.7 µM | U-251 15.9 µM

CC1=Nn2c(nnc2-c2ccc(N)cc2)NC(C)(C)C1
inactive: 786-0 > 100 µM | A498 > 100 µM | CCRF-CEM > 100 µM | HOP-92 > 100 µM | M14 > 100 µM | Malme-3M > 100 µM | SK-MEL-28 > 100 µM | SK-MEL-2 > 100 µM | SK-OV-3 > 100 µM | SW-620 > 100 µM | U-251 > 100 µM

COc1ccc(C(=O)C=C2NCCN2)cc1
inactive: 786-0 > 100 µM | A498 > 100 µM | CCRF-CEM > 100 µM | HOP-92 > 100 µM | M14 > 100 µM | Malme-3M > 100 µM | RXF 393 > 100 µM | SK-MEL-28 > 100 µM | SK-MEL-2 > 100 µM | SK-OV-3 > 100 µM | SW-620 > 100 µM | U-251 > 100 µM

CC(=O)OC1CC2C(C)(C)C(=O)C=C[C@]2(C)C2CCC3(C)C(=CCC3[C@H](CO)C[C@H](O)C(=O)C(C)(C)O)[C@]12C (stereo not given in full)
inactive: 786-0 19.7 µM | A498 16.4 µM | CCRF-CEM 17.9 µM | M14 21.7 µM | Malme-3M 14.7 µM | RXF 393 16.5 µM | SK-MEL-28 19.4 µM | SK-MEL-2 20.7 µM | SK-OV-3 13.7 µM | SW-620 21.1 µM | U-251 16.7 µM

CC(=O)OCC1OC(OC2CC3C(C)(C)C(O)CC[C@]3(C)C3CCC45CC4(CC[C@H]5C(C)CC(O)C4OC4(C)C)[C@]23C)C(O)C(O)C1O (stereo not given in full)
inactive: 786-0 7.57 µM | A498 34.5 µM | CCRF-CEM 1.56 µM | HOP-92 5.06 µM | M14 8.04 µM | Malme-3M 8.97 µM | RXF 393 4.2 µM | SK-MEL-28 7.41 µM | SK-MEL-2 5.86 µM | SK-OV-3 8.2 µM | SW-620 7.98 µM | U-251 3.89 µM

C=CCOC(C)n1c(C)c(Br)c(=O)[nH]c1=O (stereo not given)
inactive: 786-0 > 100 µM | A498 > 100 µM | CCRF-CEM > 100 µM | HOP-92 > 100 µM | Malme-3M > 100 µM | RXF 393 > 100 µM | SK-MEL-28 > 100 µM | SK-MEL-2 > 100 µM | SK-OV-3 65.2 µM | SW-620 > 100 µM | U-251 > 100 µM

CN(C)/N=N/c1c[nH]nc1C(N)=O
inactive: 786-0 > 100 µM | A498 > 100 µM | CCRF-CEM > 100 µM | HOP-92 > 100 µM | M14 > 100 µM | Malme-3M > 100 µM | SK-MEL-28 > 100 µM | SK-MEL-2 > 100 µM | SK-OV-3 > 100 µM | SW-620 > 100 µM | U-251 > 100 µM

O=C(Nc1cc(Cl)c(Cl)cc1Cl)C(=O)C(C(=O)c1ccccc1)C1OC(=O)c2ccccc21 (stereo not given)
inactive: 786-0 > 100 µM | A498 > 100 µM | CCRF-CEM > 100 µM | HOP-92 > 100 µM | M14 > 100 µM | Malme-3M > 100 µM | RXF 393 > 100 µM | SK-MEL-28 > 100 µM | SK-OV-3 > 100 µM | SW-620 > 100 µM | U-251 > 100 µM

O=C1c2ccccc2C(=O)C1C(c1ccc(F)cc1)C1C(=O)c2ccccc2C1=O
inactive: 786-0 > 100 µM | CCRF-CEM 43 µM | HOP-92 > 100 µM | M14 > 100 µM | Malme-3M > 100 µM | RXF 393 24.8 µM | SK-MEL-28 > 100 µM | SK-MEL-2 > 100 µM | SK-OV-3 > 100 µM | SW-620 > 100 µM | U-251 > 100 µM

COc1ccc(Nc2nc3cc(C(F)(F)F)ccc3nc2-c2ccccc2)cc1OC
inactive: 786-0 41.8 µM | A498 52.1 µM | CCRF-CEM 82.6 µM | HOP-92 1.16 µM | M14 38.6 µM | Malme-3M 21.7 µM | RXF 393 11.9 µM | SK-MEL-28 19.8 µM | SK-MEL-2 48.9 µM | SK-OV-3 15.9 µM | SW-620 35.5 µM | U-251 30.9 µM

N#CC1(CCCCl)CCCCC1
inactive: 786-0 > 100 µM | A498 > 100 µM | CCRF-CEM > 100 µM | HOP-92 > 100 µM | M14 > 100 µM | Malme-3M > 100 µM | RXF 393 > 100 µM | SK-MEL-28 > 100 µM | SK-MEL-2 > 100 µM | SK-OV-3 > 100 µM | SW-620 > 100 µM | U-251 > 100 µM

Clc1ccc(C2SCc3nc4ccccc4n32)c(Cl)c1 (stereo not given)
inactive: 786-0 17.2 µM | A498 15 µM | CCRF-CEM 12.6 µM | HOP-92 2.83 µM | M14 14.4 µM | Malme-3M 17.7 µM | RXF 393 15.1 µM | SK-MEL-28 16.6 µM | SK-MEL-2 16.5 µM | SK-OV-3 25.8 µM | SW-620 9.16 µM | U-251 17.9 µM
